Values of other authors, collected in patent publication US9475888B2, “Non anti-coagulative glycosaminoglycans comprising repeating disaccharide unit and their medical use” (DILAFOR AB, priority 2011, dated 2016).

How the values were obtained:
[1] = species not specified
uterus = conditions: Acta Obstetricia et Gynecologica, 2010; 89:147-150
protracted labor = conditions: women receiving prophylaxis for deep venous thrombosis

Substance	corresponding bioavailability (subcutaneous) [1]	contractility of the uterus (uterus)	protracted labor (protracted labor)
Heparin	about 10%		
dalteparin		increase	decrease
